Drawing on PubChem BioAssay (NCI), this text covers TGI and GI50 for 16 compounds.

Common to all, as to test: inhibition of tumour cell growth, NCI panel, 48 h
Experiment [1] concerns SF-539 CNS.
The test system of experiment [2] is IGROV1 ovarian.
Experiment [3] deals with DU-145 prostate.
The test system of experiment [4] is UACC-257 melanoma.
Experiment [5] deals with NCI-H522 lung.
For experiment [6], the system named is SK-OV-3 ovarian.
The test system of experiment [7] is SN12C renal.
The test system of experiment [8] is EKVX NSCLC.

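Growth conditions: 96-well plates. Treatment: test compound, 48 hours, 5 concentrations. Analysis: linear interpolation between bracketing concentrations; unreached endpoints set to highest concentration. GI50 = concentration required for 50% inhibition of growth. TGI is the concentration that stops growth completely.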

For the compound `COc1cc(-c2ccccc2N)c2cccnc2c1OC`, the TGI in experiment [1] is 21.6 µM; in experiment [2], 11.1 µM; in experiment [3], 10.5 µM; in experiment [4] it was 24.8 µM; in experiment [5], 17.9 µM; in experiment [6] it was 21.9 µM. Also, the values for the TGI in experiment [7] and in experiment [8] were 17.3 µM and 13.8 µM, respectively.

Consider `C(=C\N1CCCCC1)/c1nnnn1-c1ccccc1`, for which the TGI in experiment [1] was 76.6 µM; in experiment [2], 82.8 µM; in experiment [3], greater than 100 µM; in experiment [4], greater than 100 µM; in experiment [5], greater than 100 µM; in experiment [6], 63.3 µM. For the same compound, the TGI in experiment [7] is greater than 100 µM; in experiment [8], 63.1 µM.

As for `CCOC(=O)Oc1ccc2c(c1)c(=O)c1c(NCCN(CC)CC)ccc3nnn2c31`, the TGI was 13.5 µM in experiment [1]; 21.7 µM in experiment [2]; 8.29 µM in experiment [3]; 21.1 µM in experiment [4]; 6.61 µM in experiment [5]; 22.6 µM in experiment [6]. Besides, the figures for the TGI in experiment [7] and in experiment [8] were 15.1 µM and 19.9 µM, respectively.

On to `Cn1c(N/N=C/c2ccccc2)nc(-c2ccc([N+](=O)[O-])cc2)c(C#N)c1=O`, for which the TGI in experiment [1], in experiment [2], in experiment [3], in experiment [4], in experiment [5] and in experiment [6] was greater than 100 µM in each case. Also, the TGI in experiment [7] and in experiment [8] was greater than 100 µM in each case.

Turning to `CCn1c(SCC(=O)NNC(=S)NC)nc2ccccc2c1=O`, the TGI in experiment [1], in experiment [2], in experiment [3], in experiment [4], in experiment [5] and in experiment [6] was greater than 100 µM in each case. Further, the TGI in experiment [7] and in experiment [8] was greater than 100 µM throughout.

Turning to `C/C1=C\C=C(\C(C)C)CC/C(C(=O)O)=C\CC/C(C)=C/CC1`, the TGI was 34.8 µM in experiment [1]; greater than 100 µM in experiment [2]; greater than 100 µM in experiment [3]; 56.1 µM in experiment [4]; 39.5 µM in experiment [5]; 64 µM in experiment [6]. Also, the TGI in experiment [7] is 45.9 µM; in experiment [8], 78.7 µM.

As to `O=C1c2cn[nH]c2C(c2ccccc2)N1c1ccccc1` (centres undefined), the TGI in experiment [1], in experiment [2], in experiment [3], in experiment [4], in experiment [5] and in experiment [6] was greater than 10 µM throughout. Moreover, the TGI in experiment [7] and in experiment [8] was greater than 10 µM each time.

On to `COc1cc(C2c3cc4c(cc3OC(N3CCNCC3)C2C)OCO4)cc(OC)c1OC` (centres undefined), for which the TGI is 1.94 µM in experiment [1]; 17.5 µM in experiment [2]; greater than 28.5 µM in experiment [3]; greater than 47.9 µM in experiment [4]; 8.32 µM in experiment [5]; greater than 23.4 µM in experiment [6]. Further, the TGI in experiment [7] is greater than 53.2 µM; in experiment [8], greater than 100 µM.

For `Cc1ccc2c(c1)C(=O)C(C1OC(=O)c3ccccc31)C2` (centres undefined), the TGI in experiment [1], in experiment [2], in experiment [3], in experiment [4], in experiment [5] and in experiment [6] was greater than 100 µM each time. For the same compound, the TGI in experiment [7] and in experiment [8] was greater than 100 µM in each case.

As for `COc1cc(C2c3cc4c(cc3OC(NCCO)C2C)OCO4)cc(OC)c1OC` (centres undefined), the TGI was 0.635 µM in experiment [1]; greater than 100 µM in experiment [2]; greater than 100 µM in experiment [3]; greater than 100 µM in experiment [4]; 1.62 µM in experiment [5]; greater than 100 µM in experiment [6]. Moreover, the TGI in experiment [7] and in experiment [8] was greater than 100 µM in each case.

`C[Si](C)(c1ccccc1)[C@H]1CCCC=C1CCNC1c2ccccc2CCc2ccccc21`: the TGI in experiment [1], in experiment [2], in experiment [3], in experiment [4], in experiment [5] and in experiment [6] was greater than 100 µM in each case. Also, the TGI in experiment [7] and in experiment [8] was greater than 100 µM throughout.

For `Oc1[nH]c2ccccc2c1/C=c1/cc2c(c(-c3ccc(F)cc3)n1)=Nc1ccccc1-2`, the GI50 was 0.477 µM in experiment [1]; 0.554 µM in experiment [2]; 0.422 µM in experiment [3]; 0.714 µM in experiment [4]; 0.218 µM in experiment [5]; 0.848 µM in experiment [6]. Moreover, the GI50 is 1.38 µM in experiment [7] and 3.01 µM in experiment [8]. Also, the TGI in experiment [1] amounted to 1.81 µM; in experiment [2] it was 1.93 µM; in experiment [3], 2.03 µM; in experiment [4], 2.88 µM; in experiment [5], 0.99 µM; in experiment [6], 3.15 µM. The TGI in experiment [7] turned out to be 3.88 µM; in experiment [8], 72.7 µM.

Take `CCCC(CCN)(CCN)[N+](=O)[O-]`: the TGI in experiment [1], in experiment [2], in experiment [3], in experiment [4], in experiment [5] and in experiment [6] was greater than 100 µM each time. Moreover, the TGI in experiment [7] and in experiment [8] was greater than 100 µM throughout.

With `COc1cc2nc(-c3cccs3)[nH]c(=O)c2cc1OC`, the TGI in experiment [1], in experiment [2], in experiment [3], in experiment [4], in experiment [5] and in experiment [6] was greater than 100 µM in each case. Moreover, the TGI in experiment [7] and in experiment [8] was greater than 100 µM each time.

Consider `Clc1ccc(OCc2nn3c(CCc4nnc5sc(COc6ccc(Cl)cc6)nn45)nnc3s2)cc1`, for which the TGI in experiment [1] is greater than 100 µM; in experiment [2], 55.1 µM; in experiment [3] it was 44.2 µM; in experiment [4], 82.9 µM; in experiment [5], 30.1 µM; in experiment [6] it was greater than 100 µM. Besides, the TGI in experiment [8] is greater than 100 µM.

On to `CC1(C)CC(=O)C2=C(C1)OC1=C(CC(C)(C)CC1=O)C2c1ccccc1[N+](=O)[O-]` (centres undefined), for which the TGI in experiment [1], in experiment [2], in experiment [3], in experiment [5], in experiment [6] and in experiment [7] was greater than 100 µM throughout. In experiment [8], the TGI is greater than 100 µM.
